Patent US11713302B2, “Sulfonamide benzamide derivative and preparation method and application thereof” (WEIFANG MEDICAL UNIVERSITY, priority 2021, dated 2023)
Like-named read-outs stand apart in the source and are kept apart here.

Key:
[1] = tested on: HBV DNA; test: HBV DNA activity inhibition assay (quantitative PCR) in HepAD38 cells; assay type: cell-based, hepatitis B virus (HBV)
Method: (§1) HBV stably transfected hepatocellular carcinoma cell line, HepAD38, was able to secrete HBV viral particles (containing HBsAg, HBeAg and DNA) when the cells were cultured. The amount of HBsAg and HBeAg secreted by the cells and the DNA produced varied under the intervention of anti-HBV target compounds, so the antiviral activity of the sample drug could be calculated by measuring the amount of HBsAg and HBeAg secreted by the cells into the culture supernatant and the HBV DNA produced, with reference to the amount in the unspiked control. Using entecavir as a positive control drug, the concentration of the drug at 50% inhibition of HBV DNA was measured by quantitative PCR at the value of IC50; the concentration of the sample drug causing 50% cell death was measured by CCK-8 at the value of CC50, and the “selectivity index” of the compound to be tested was calculated. SI=CC50/IC50. (1) Cytotoxicity assay
(2) HBV DNA Activity Inhibition Assay (Quantitative PCR Method)
HepAD38 cells were cultured in 96-well cell culture plate for 24 hours, then 10 μM, 2 μM, 0.4 μM, 0.08 μM and […] drug-containing medium was added and the cells were incubated for 10 days (changed every 2 days), the supernatant was collected and the supernatant HBV DNA content was measured by quantitative PCR.

[2] = Cytotoxicity assay (CCK-8) in HepAD38 cells; assay type: cell-based; conditions: human
Method: as §1
(§2) Each sample was prepared with HepAD38 cell culture medium at a diluted concentration (1 μM) for preliminary activity screening, and a blank control was set up and a positive control drug was added to the 96-well cell culture plate with 3 replicate wells per concentration, and the same concentration was changed every 2 days and a drug-free cell control group was set up for 10 days. Cell viability was measured by CCK-8 assay to determine the toxicity of the drug to HepAD38 cells. Five dilutions (10 μM, 2 μM, 0.4 μM, 0.08 μM and […]) were prepared in HepAD38 cell culture medium for compounds with low toxicity, and a blank control and entecavir and lead compound 5a were used as positive control drugs. Cell culture plates were added to 96-well plates with 3 replicate wells per concentration, and the same concentration was changed every 2 days and a drug-free cell control group was set up for 10 days. Cell viability was measured by CCK-8 assay to determine the toxicity of the drug on HepAD38 cells.

[3] = tested on: HepAD38 cells; test: Cytotoxicity assay (CCK-8) in HepAD38 cells; assay type: cell-based; conditions: CCK-8, 10 days
Method: as §1, §2

[4] = Hepatitis B virus, HePAD38, 240 h
[5] = Hepatitis B virus, 240 h, supernatant HBV DNA, HepAD38 cells, quantitative PCR, 10 days, read-out: EC50
[6] = Hepatitis B virus, 240 h, supernatant HBV DNA, HepAD38 cells, quantitative PCR, 10 days, read-out: IC90

Row | SMILES | EC50 [1, 4] | IC90 [1, 4] | CC50 at 10 days ([2]; CCK-8, 10 days) | EC50 [1, 5] | IC90 [1, 6] | IC50 ([1]; Hepatitis B virus, HePAD38, quantitative PCR, read-out: IC50 (anti-HBV DNA replication activity)) | inhibition of HBV DNA replication activity (initial screening) ([1]; quantitative PCR) | CC50 [3] | CC50 at 10 days ([2]; CCK-8)
1 | C=C1[C@H](CO)[C@@H](O)C[C@@H]1n1cnc2c(=O)[nH]c(N)nc21 [ETV, entecavir, reference compound] | 0.121 nM | 21 nM | > 10000 nM | – | – | – | – | – | –
2 | CC(C)NS(=O)(=O)c1cc2c(c(C(=O)Nc3ccc(F)c(Cl)c3)c1)OCCO2 [Compound 5k] | – | – | – | 0.96 nM | 99 nM | 0.96 nM | good HBV DNA replication inhibitory activity | > 10000 nM | > 10000 nM
3 | O=C(Nc1ccc(F)c(Cl)c1)c1cc(S(=O)(=O)NC2CCCCC2)cc2c1OCCO2 [Compound 5c] | – | – | – | 14.9 nM | 430 nM | – | good HBV DNA replication inhibitory activity | > 10000 nM | > 10000 nM
4 | O=C(Nc1ccc(F)c(Cl)c1)c1cc(S(=O)(=O)NC2CCCC2)cc2c1OCCO2 [Compound 5b] | – | – | – | 2.52 nM | 293 nM | – | good HBV DNA replication inhibitory activity | > 10000 nM | > 10000 nM
